# Reference: patent EP0714896A1, “INDOL DERIVATIVES USEFUL FOR THE TREATMENT OF MIGRAINE, COMPOSITION AND UTILIZATION” (VITA-INVEST, S.A., priority 1994, dated 1995)
# Tested on: isolated rabbit saphenous vein
# Assay: 5HT1-like agonist activity on the isolated rabbit saphenous vein preparation (contraction)
# Assay type: cell-based
# Settings: Oryctolagus cuniculus; pD2 = -log EC50 of contraction; after phenoxybenzamine 0.3 µM and pargyline 500 µM; 37°C
# Method: 5HT1-like agonist activity of the synthesis products on the isolated rabbit saphenous vein preparation.
# This study was conducted using the method described by Van Heuven-Nolsen (Van Heuven-Nolsen et al., Eur. J. Pharmacol. 191 (3); 375-382; 1990) and male New Zealand rabbits were used. The animals were sacrificed by exposure to excess CO₂. Thereafter the saphenous vein of each rear extremity was excised. 5 mm long segments were obtained from each vein. Each segment was placed, using appropriate supports, in an organ bath containing a Krebs-Henseleit solution aerated with carbogen and thermostatically controlled to 37°C. These conditions were held for 25 minutes, after which the preparation was subjected to a traction of 2 g at the same time as phenoxybenzamine (0.3 µM) and pargyline (500 µM) were added to the organ bath over 30 minutes. The phenoxybenzamine is an irreversible antagonist of the α-adrenoreceptors, whilst pargyline is a selective monoaminooxidase (MAO) inhibitor. At the end of these 30 minutes, successive washings were performed with Krebs solution every 7 minutes, for a further 30 minutes to remove the excess phenoxybenzamine. Thereafter, the preparation was subjected to an increasing contraction by the addition of cumulative doses of sumatriptan (10⁻⁹ at 3x10⁻⁵ M), followed by washing and allowing to rest for 30 minutes until the segment returns to its basal tension. At the end of this time, a further cumulative curve is plotted with the product to be studied. The pD2 (-log EC₅₀, the product concentration producing 50% of its maximum contraction) and the Emax (maximum contraction achieved) were calculated.
row,Compound,EC50
1,"COc1ccc2[nH]cc(CCCN3CCN(c4ncnc(OC)c4OC)CC3)c2c1 [Example 80, 3-{3-[4-(5,6-dimethoxy-pyrimidin-4-yl)-piperazin-1-yl]-propyl}-5-methoxy-1H-indole]",1.38 nM
2,"CNc1ncnc(N2CCN(CCCc3c[nH]c4ccc(CS(=O)(=O)NC)cc34)CC2)c1OC [Example 64, C-(3-{3-[4-(6-methylamino-5-methoxy-pyrimidin-4-yl)-piperazin-1-yl]-propyl}-1H-indol-5-yl)-N-methyl-methanesulfonamide]",105 nM
3,"CNS(=O)(=O)Cc1ccc2[nH]cc(CCCN(C)CCN(C)c3ncnc(OC)c3OC)c2c1 [Example 62, C-{3-[3-({2-[(5,6-dimethoxy-pyrimidin-4-yl)-methyl-amino]-ethyl}-methyl-amino)-propyl]-1H-indol-5-yl}-N-methyl-methanesulfonamide]",120 nM
4,"NCCc1c[nH]c2ccc(O)cc12 [SEROTONIN, reference compound]",49 nM
5,"CNS(=O)(=O)Cc1ccc2[nH]cc(CCCN3CCN(c4ncnc(OC)c4OC)CC3)c2c1 [Example 51, C-(3-{3-[4-(5,6-dimethoxy-pyrimidin-4-yl)-piperazin-1-yl]-propyl}-1H-indol-5-yl)-N-methyl-methanesulfonamide]",7.24 nM
6,"COc1cnc(C)nc1N1CCN(CCCc2c[nH]c3ccc(F)cc23)CC1 [Example 70, 5-fluoro-3-{3-[4-(2-methyl-5-methoxy-pyrimidin-4-yl)-piperazin-1-yl]-propyl}-1H-indole]",324 nM
7,"CNS(=O)(=O)Cc1ccc2[nH]cc(CCCNC3CCN(c4ncnc(OC)c4OC)C3)c2c1 (stereo not shown) [Example 56, C-(3-{3-[1-(5,6-dimethoxy-pyrimidin-4-yl)-pyrrolidin-3-ylamino]-propyl}-1H-indol-5-yl)-N-methyl-methanesulfonamide]",457 nM
8,"CNS(=O)(=O)Cc1ccc2[nH]cc(CCCN3CCN(c4ncncc4-c4ccccc4)CC3)c2c1 [Example 87, C-(3-{3-[4-(5-phenyl-pyrimidin-4-yl)-piperazin-1-yl]-propyl}-1H-indol-5-yl)-N-methylmethanesulfonamide]",282 nM
9,"CNS(=O)(=O)Cc1ccc2[nH]cc(CCN3CCN(c4ncncc4OC)CC3)c2c1 [Example 85, C-(3-{2-[4-(5-methoxy-pyrimidin-4-yl)-piperazin-1-yl]-ethyl}-1H-indol-5-yl)-N-methyl-methanesulfonamide]",2630 nM
10,"CNS(=O)(=O)Cc1ccc2[nH]cc(CCN(C)C)c2c1 [SUMATRIPTAN, sumatriptan, reference compound]",347 nM
11,"COc1cncnc1N1CCN(CC=Cc2c[nH]c3ccc(F)cc23)CC1 [Example 83, 5-fluoro-3-{3-[4-(5-methoxy-pyrimidin-4-yl)-piperazin-1-yl]-propenyl}-1H-indole]",724 nM

# Same assay, conditions: pD2 = -log EC50 of contraction; after phenoxybenzamine 0.3 µM and pargyline 500 µM; 37°C
row,Compound,RABBIT SAPHENOUS VEIN pD2
1,"C-(3-{3-[3-(5,6-dimethoxy-pyrimidin-4-yl)-piperazin-1-yl]-1-methyl-1H-indol-5-yl)-N-methyl-methanesulfonamide [Example 78]",6.80±0.56
2,"CNS(=O)(=O)Cc1ccc2[nH]cc(CCCNCCN(C)c3ncncc3OC)c2c1 [Example 59, C-[3-(3-{2-[5-methoxy-pyrimidin-4-yl)-methylaminolethylamino}-propyl)-1H-indol-5-yl]-N-methyl-methanesulfonamide.]",6.64±0.24
